Test [1] relates to RPE cells. In words: p38 blockade in TnT-induced RPE EMT (masses and EMT transcripts). The note with it: TnT + 10 ng/ml SB202190, 5 days. The test is classed as cell-based, human. The method, then: It was next reasoned that, if p38 is involved in the TnT-induced gene changes observed in SNAIL, SLUG and TWIST transcripts, then blocking p38 should result in the loss of TnT-induced EMT changes. Therefore an experiment was conducted to examine RPE-EMT with an additional condition of TnT+the p38 inhibitor SB202190.

Test [2] relates to RPE cells. In words: FOXS1 expression in EMT+p38 inhibitor condition. The test is classed as cell-based, human. The note with it: TnT + p38 inhibitor, 5 days.
In a further test the test system is Primary human RPE lines. In words: qPCR of EMT and RPE fate transcripts in primary RPE cultured with NAM for 21 days. The test is classed as cell-based. The note with it: 10 mM NAM, versus vehicle. The procedure:
Cadaver donor globes were received from the National Disease Research Interchange (Philadelphia, Pa., USA), and RPE cells were isolated and grown to establish a RPE monolayer (Blenkinsop et al., (2015), Investigative Ophthalmology & Visual Science 56, 7085-7099; Blenkinsop et al., (2013), Methods Mol Biol 945, 45-65.). Primary human RPE lines were cultured in the presence of Nicotinamide (NAM) (Cat. #N0636; Sigma) at a concentration of 10 mM or vehicle (cell culture grade water) for 21 days. […] Additionally, RPE fate associated protein transcripts were tested by qPCR.
On the technique in general: In qPCR the cycle at which signal appears reflects the starting amount.

Test [3] deals with RPE cells. In words: Effect of NAM in the TNT-induced EMT model, qPCR. The test is classed as cell-based, human. The note with it: 10 mM NAM. The method, then:
In a parallel experiment, the effect of NAM was tested in an EMT model. EMT was induced in RPE cells using 10 ng/ml TGFβ1 and TNFα. RPE cells were trypsinized and passaged into a 24 well plate. 24 hours after passaging, RPE cells were treated with TGFβ1 and TNFα (TNT condition) for 7 days. To test the effect of NAM, we added 10 mM NAM or vehicle to the medium used for EMT model (using TNT). EMT associated protein transcripts including FOXS1 were analyzed by qPCR.

The subject of test [4] is RPE cells. In words: Screening assay for agents that induce EMT: RPE morphology by light microscope. The test is classed as cell-based, human. The note with it: 10 ng/ml, 5 days, DMEM/F12 with 5% FBS.
Procedure: RPE were plated at a confluency of 30,000 cells in 1 well of a 24-well plate in DMEM/F12 with 5% FBS, adding TGFβ (10 ng/ml) or TNFα (10 ng/ml), or both. After 5 days, RPE morphology was assessed by a light microscope.
For a further test, the system named is p38. In words: p38 immunostaining (localization) in RPE cells. The note with it: DMEM 5% FBS, 5 days.
Test [5] concerns hTERT HMEnt (HME) breast epithelial cell line. In words: EMT and FOXS1 transcripts in breast epithelial cells.

`Oc1ccc(-c2nc(-c3ccncc3)c(-c3ccc(F)cc3)[nH]2)cc1` [SB202190]: in the test with RPE cells [1], the SLUG transcription entry is reported as “stayed at or near control levels”, the SNAIL transcription entry is on record as “stayed at or near control levels”, the TWIST transcription result is recorded as “stayed at or near control levels” and the “growth of three dimensional masses” value was “did not grow”. Also, the FOXS1 gene transcription result in the test with RPE cells [2] was “elevated in the TnT condition, but not when the p38 inhibitor was added”.
As to `NC(=O)c1cccnc1` [NAM, Nicotinamide], in the test on Primary human RPE lines, the “EMT associated marker FOXS1” value is reported as “inhibited”, the “EMT associated marker SNAIL” value is recorded as “inhibited”, the “RPE marker BEST1 expression” value is “increased expression” and the “RPE marker RPE65 expression” value is recorded as “increased expression”. The “EMT marker SNAIL” value with RPE cells [3] (as early as day 1 post induction of EMT) is recorded as “inhibited”. In addition, the “EMT marker FOXS1” value with RPE cells [3] (by day 3 post induction of EMT) was “clear inhibition”. The “EMT marker SLUG” value in the test with RPE cells [3] (by day 5 post induction of EMT) is recorded as “clear inhibition”.
As for TNFα, the RPE morphology entry in the test with RPE cells [4] is reported as “acquired a fibroblastic morphology”. For the same molecule, the p38 localization entry in the test on p38 is listed as “found cytoskeletally”.
As for “TGFβ: cytokine used at 10 ng/ml to induce EMT”, in the test with RPE cells [4], the RPE morphology entry is given as “acquired a fibroblastic morphology”. Moreover, the p38 localization result in the test with p38 is “localized predominantly perinuclearly”. Further, in test [5], the FOXS1 transcript entry is given as “increased”.

The values above are taken from US20170082611A1, “Methods for Inhibiting Epithelial to Mesenchymal Transition by Inhibition of FOXS1” (Regenerative Research Foundation, priority 2015, published 2017).
